Data taken from article PMC12638379, “An innovative approach to development of new pyrazolylquinolin-2-one hybrids as dual EGFR and BRAF^V600E inhibitors” (Molecular Diversity, 2025).
Like-named read-outs stand apart in the source and are kept apart here.

Tested on: NCI 60 cancer cell lines
Experiment: NCI anticancer screening over a panel of 60 cancer cells, single concentration 10 µM
Type: cell-based, human
Conditions: Homo sapiens, read-out: % Growth Inhibition (GI %)
Method in brief: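 Run under the NCI Compound Evaluation Branch protocol, each compound was tested once at 10 µM. The panel comprised 60 cancer cell lines of diverse tissue origin, including leukemia, lung, colon, CNS, renal, ovarian, breast and prostate.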

`C/C(=N\Nc1ccc(C(=O)O)cc1)c1cnn(-c2cc(=O)[nH]c3ccc(Cl)cc23)c1C` [Compound 4i, (E)-4-(2-(1-(1-(6-chloro-2-oxo-1,2-dihydroquinolin-4-yl)-5-methyl-1H-pyrazol-4-yl)ethylidene)hydrazineyl)benzoic acid] was tested, and the inhibition at 10 µM (786-0, Renal cancer 786-0, 10 μM) was under 5%, the inhibition at 10 µM (A498, Renal cancer A498, 10 μM) was under 5% and the inhibition at 10 µM (A549, Non-small cell lung cancer A549/ATCC, 10 μM) was under 5%. The inhibition at 10 µM (ACHN, Renal cancer ACHN, 10 μM) was under 5%, the inhibition at 10 µM (BT-549, Breast cancer BT-549, 10 μM) was under 5% and the inhibition at 10 µM (CAKI-1, Renal cancer CAKI-1, 10 μM) was 10.8%. It also gave an inhibition at 10 µM (CCRF-CEM, Leukemia CCRF-CEM, 10 μM) of under 5%, an inhibition at 10 µM (COLO 205, Colon cancer COLO 205, 10 μM) of under 5% and an inhibition at 10 µM (DU-145, Prostate cancer DU-145, 10 μM) of under 5%. The inhibition at 10 µM (EKVX, Non-small cell lung cancer EKVX, 10 μM) was under 5%, the inhibition at 10 µM (HCC 2998, Colon cancer HCC-2998, 10 μM) was under 5% and the inhibition at 10 µM (HCT-15, Colon cancer HCT-15, 10 μM) was under 5%. It also gave an inhibition at 10 µM (HCT-116, Colon cancer HCT-116, 10 μM) of under 5%, an inhibition at 10 µM (HL-60, Leukemia HL-60(TB), 10 μM) of 5.88% and an inhibition at 10 µM (HOP-62, Non-small cell lung cancer HOP-62, 10 μM) of under 5%. For the same molecule, the inhibition at 10 µM (HOP-92, Non-small cell lung cancer HOP-92, 10 μM) was 36.7%, the inhibition at 10 µM (HT-29, Colon cancer HT29, 10 μM) was under 5% and the inhibition at 10 µM (Hs-578T, Breast cancer HS 578T, 10 μM) was 6.25%. The inhibition at 10 µM (IGROV-1, Ovarian cancer IGROV1, 10 μM) was under 5%, the inhibition at 10 µM (K562, Leukemia K-562, 10 μM) was 7.48% and the inhibition at 10 µM (KM12, Colon cancer KM12, 10 μM) was under 5%. The inhibition at 10 µM (LOX IMVI, Melanoma LOX IMVI, 10 μM) was under 5%, the inhibition at 10 µM (Leukemia SR, 10 μM) was under 5% and the inhibition at 10 µM (MCF7, Breast cancer MCF7, 10 μM) was 8.38%. It also gave an inhibition at 10 µM (MDA-MB-231, Breast cancer MDA-MB-231/ATCC, 10 μM) of 12.9%, an inhibition at 10 µM (MDA-MB-435, Melanoma MDA-MB-435, 10 μM) of under 5% and an inhibition at 10 µM (MDA-MB-468, Breast cancer MDA-MB-468, 10 μM) of under 5%. It also gave an inhibition at 10 µM (MOLT-4, Leukemia MOLT-4, 10 μM) of under 5%, an inhibition at 10 µM (Melanoma M14, 10 μM) of under 5% and an inhibition at 10 µM (Melanoma MALM-3M, 10 μM) of 19.4%. It also gave an inhibition at 10 µM (NCI-H23, Non-small cell lung cancer NCI-H23, 10 μM) of under 5%, an inhibition at 10 µM (NCI-H226, Non-small cell lung cancer NCI-H226, 10 μM) of under 5% and an inhibition at 10 µM (NCI-H322M, Non-small cell lung cancer NCI-H322M, 10 μM) of under 5%. It also gave an inhibition at 10 µM (NCI-H460, Non-small cell lung cancer NCI-H460, 10 μM) of under 5%, an inhibition at 10 µM (NCI-H522, Non-small cell lung cancer NCI-H522, 10 μM) of under 5% and an inhibition at 10 µM (NCI/ADR-RES, Ovarian cancer NCI/ADR-RES, 10 μM) of under 5%. The inhibition at 10 µM (OVCAR-3, Ovarian cancer OVCAR-3, 10 μM) was under 5%, the inhibition at 10 µM (OVCAR-4, Ovarian cancer OVCAR-4, 10 μM) was under 5% and the inhibition at 10 µM (OVCAR-5, Ovarian cancer OVCAR-5, 10 μM) was under 5%. It also gave an inhibition at 10 µM (OVCAR-8, Ovarian cancer OVCAR-8, 10 μM) of under 5%, an inhibition at 10 µM (Prostate cancer PC-3, 10 μM) of under 5% and an inhibition at 10 µM (RPMI-8226, Leukemia RPMI-8226, 10 μM) of under 5%. For the same molecule, the inhibition at 10 µM (RXF 393, Renal cancer RXF 393, 10 μM) was under 5%, the inhibition at 10 µM (SF-268, CNS Cancer SF-268, 10 μM) was under 5% and the inhibition at 10 µM (SF-295, CNS Cancer SF-295, 10 μM) was under 5%. The inhibition at 10 µM (SF-539, CNS Cancer SF-539, 10 μM) was under 5%, the inhibition at 10 µM (SK-MEL-2, Melanoma SK-MEL-2, 10 μM) was under 5% and the inhibition at 10 µM (SK-MEL-5, Melanoma SK-MEL-5, 10 μM) was under 5%. The inhibition at 10 µM (SK-MEL-28, Melanoma SK-MEL-28, 10 μM) was under 5%, the inhibition at 10 µM (SK-OV-3, Ovarian cancer SK-OV-3, 10 μM) was 5.11% and the inhibition at 10 µM (SN12C, Renal cancer SN12C, 10 μM) was under 5%. The inhibition at 10 µM (SNB-19, CNS Cancer SNB-19, 10 μM) was under 5%, the inhibition at 10 µM (SNB-75, CNS Cancer SNB-75, 10 μM) was 5.56% and the inhibition at 10 µM (SW-620, Colon cancer SW-620, 10 μM) was under 5%. The inhibition at 10 µM (T47D, Breast cancer T-47D, 10 μM) was 6.23%, the inhibition at 10 µM (TK-10, Renal cancer TK-10, 10 μM) was under 5% and the inhibition at 10 µM (U-251, CNS Cancer U251, 10 μM) was under 5%. The inhibition at 10 µM (UACC-62, Melanoma UACC-62, 10 μM) was 6.04%, the inhibition at 10 µM (UACC-257, Melanoma UACC-257, 10 μM) was under 5% and the inhibition at 10 µM (UO-31, Renal cancer UO-31, 10 μM) was 29.1%.
